Measurements taken from patent US8481051B2, “Cytotoxic T-cell epitope peptides that specifically attack epstein-barr virus-infected cells and uses thereof” (Medical and Biological Laboratories Co., Ltd., priority 2005, dated 2013).

Tests used:
Format in all cases: cell-based, human
[1] = tested on: EBNA1-specific CTL clone C6; test: IFNγ ELISPOT assay, CTL clone C6 with peptide-pulsed autologous CD40-B cells; details: autologous CD40-B cells pulsed with 10 μg/mL peptide; FIG. 9
Procedure: (§1) ELISPOT assays were performed by a known method (Kuzushima K., et al., Blood, 101:1460-1468 (2003)). Specifically, CD8 T cells were co-cultured with various stimulators in wells of Multiscreen-HA plates (Millipore, Billerica, Mass.) coated with anti-human interferon-γ (IFNγ) monoclonal antibody (Pierce Biotechnology, Philadelphia, Pa.). As stimulators, (A) autologous EBNA1 mRNA-transduced CD40-B cells or non-transduced CD40-B cells and (B) autologous or allogenic LCLs (1×10^5 cells/well) were seeded into each well. For peptide titration assays and the overlapping peptide assay described below, serial concentrations of synthetic peptides were added to autologous CD40-B cells for one hour at room temperature.
(§2) After reacting with anti-human IFNγ rabbit polyclonal antibody (Pierce Biotechnology), followed by addition of peroxidase-labeled anti-rabbit immunoglobulin antibody (Genzyme, Cambridge, Mass.) and substrate, the plates were washed and dried. IFNγ spots were enumerated under a stereoscopic microscope.

[2] = tested on: EBNA1-specific CTL clone B5; test: IFNγ ELISPOT assay, CTL clone B5 with peptide-pulsed autologous CD40-B cells; details: for recognition of 20-mer overlapping peptide by clone B5: autologous CD40-B cells pulsed with 10 μg/mL peptide, FIG. 9
Procedure: as §1, §2

[3] = tested on: LMP1-specific CTL clone H7; test: IFNγ ELISPOT assay, CTL clone H7 with peptide-pulsed A0206-293T cells; details: for recognition by H7 in ELISPOT assay: A0206-293T cells pulsed with various concentrations of synthetic peptide, FIG. 2D
Procedure: ELISPOT assays were performed by known methods (Kuzushima K., et al., Blood, 94:3094-3100 (1999); Kondo E., et al., J. Immunol., 169:2164-2171 (2002); and Kuzushima K., et al., Blood, 98:1872-1881 (2001)). Specifically, CD8 T cells were co-cultured with various stimulators in wells of Multiscreen-HA plates (MAHA S4510; Millipore, Billerica, Mass., USA) coated with anti-human interferon-γ (IFNγ) monoclonal antibody (Pierce Biotechnology, Philadelphia, Pa., USA).
As stimulators, HLA-A*0206-positive or -negative LCLs (1×10^5 cells/well) or HLA-A*0206-expressing HEK-293T (A0206-293T) cells (5×10^4 cells/well) transfected with plasmids using Lipofectamin 2000 (Invitrogen) were seeded into each well 48 hour before T cell addition. For peptide titration assays, several concentrations of synthetic peptides (Greiner, Frickenhausen, Germany) were pulsed to A0206-293T cells for one hour at room temperature. After probing with […] (Pierce Biotechnology) and reacting with peroxidase-labeled anti-rabbit IgG antibody (Genzyme, Cambridge, Mass., USA) for spot visualization, the plates were washed and dried. IFNγ spots were enumerated using a stereoscopic microscope.

[4] = tested on: SNK-6 cells; test: CTL assay (51Cr release) against SNK-6; details: SNK-6 pulsed with 100 nM epitope peptide; four-hour CTL assay; FIG. 5A
Procedure: Next, cytotoxic activities of H7 on LCLs were explored. CTL assays were conducted according to the following procedures. Target cells were labeled with 50 μCi chromium (^51Cr) for one and a half hours at 37° C., washed, and mixed with CTLs at the indicated effector:target ratios in 96-well plates. After incubation for 4 or 16 hours at 37° C., the radioactivity in the supernatants was counted with a γ-counter. The percentage of specific ^51Cr release was calculated as follows: 100×{(experimental release)−(spontaneous release)}/{(maximum release)−([…])}.

## #24: 20-mer overlapping EBNA1 peptide (402-421)
[1]
  recognition of 20-mer overlapping peptide by clone C6: recognized

## #38: 20-mer overlapping EBNA1 peptide (500-519)
[2]
  recognition of 20-mer overlapping peptide by clone B5: recognized

## #39: 20-mer overlapping EBNA1 peptide (507-526)
[2]
  recognition of 20-mer overlapping peptide by clone B5: recognized

## I I I I L I I F I (IIIILIIFI) [SEQ ID NO: 1]
[3]
  recognition by H7 in ELISPOT assay: recognized by H7
[4]
  lysis of epitope peptide-pulsed SNK-6 cells by H7: efficiently lysed

## I I I L I I F I (IIILIIF) [SEQ ID NO: 18, LMP1 amino acid residues 64-71]
[3]
  recognition by H7 in ELISPOT assay: only the 9-mer peptide was recognized by H7

## VYGGSKTSL [SEQ ID NO: 22]
[2]; autologous CD40-B cells, serial dilutions of peptide, FIG. 10C
  recognition by clone B5 in peptide titration: not recognized even with much higher concentrations

## YLLEMLWRL [SEQ ID NO: 25, reference compound]
[3]; data not shown
  IFNγ production by H7 with the peptide: did not produce IFNγ
